Counter-ions that a name gives are not always drawn.
Tests used:
Type in all cases: in vivo
[1] = test system: Rice Leaf Beetle (Oulema oryzae); assay: Test (root dipping) for controlling rice leaf beetle; settings: 4 days after treatment; for mortality at 1.6 ppm: root dipping of rice seedlings, late instar larvae released after 2 days
Protocol: (§1) Ten sampled rice seedlings held with urethane in a glass cylinder having an inner diameter of 4.5 cm and a length of 14 cm were set up in a plastic cup containing 40 mL of chemical solution diluted to a desired concentration. After 2 days, 4 larvae of rice leaf beetle in the late instar larva were released in the glass cylinder. The glass cylinder was covered with a lid of medicine paper and kept in a chamber at a constant temperature of 25° C. for rearing.

[2] = test system: Southern Yellow thrips (Thrips palmi); assay: Test (foliar spraying) for controlling southern yellow thrips; settings: 72 h; 200 ppm, foliar spraying on cucumber leaf, first instar larvae, 3 days after treatment
Protocol: A cucumber leaf cut to a diameter of 1.5 cm was placed on cotton wool moistened with water. […] After air-drying, 5 larvae of southern yellow thrips in the first instar larva were released there. The sample with cotton wool was placed in a plastic cup, which was covered with a lid and kept in a chamber at a constant temperature of 25° C. for rearing.

[3] = test system: Cotton Aphid (Aphis gossypii); assay: Test (foliar spraying) for controlling cotton aphid; settings: 120 h, 5 days after treatment; for mortality at 200 ppm: foliar spraying on cucumber leaf
Protocol: A cucumber leaf cut to a diameter of 3.5 cm was placed on cotton wool moistened with water. Two adult cotton aphids were released there for offspring for 24 hours and the adult insects were then removed. […] After air-drying, the sample with cotton wool was placed in a plastic cup, which was covered with a lid and kept in a chamber at a constant temperature of 25° C. for rearing.

[4] = test system: Brown Planthopper (Nilaparvata lugens); assay: Test (root dipping) for controlling brown planthopper; settings: 120 h, root dipping, 5 days after treatment
Protocol: as §1, with “days, 10” for “days, 4”, “of brown planthoppers” for “of rice leaf beetle”, “the third” for “the late”

[5] = test system: Inedorooimushi (Oulema oryzae); assay: Test (pot test) for controlling inedorooimushi; settings: larvae released 20 days after treatment, 2 days after release; for mortality at 500 g/ha: 500 g/ha as wettable powder at rice roots
Protocol: The roots of five sampled rice seedlings were washed with water. The wettable powder prepared in accordance with Formulation Example 2 described above was wrapped in the roots to be planted in a Wagner pot of 1/10000 a. After 20 days from the treatment, 3 larvae of inedorooimushi in the late instar larva were released per strain and reared in a plastic greenhouse with a room temperature set at 25° C. On 2 days after the releasing of the insects, the mortality of the insect was calculated.

[6] = test system: Diamondback Moth (Plutella xylostella); assay: Test (foliar dipping) for controlling diamondback moth; settings: 72 h, foliar dipping of cabbage leaf, third instar larvae, 3 days after treatment
Protocol: A cabbage leaf cut to a diameter of 5.0 cm was dipped in the diluent of the test compounds diluted to 200 ppm in an amount of 20 mL and air-dried. After air-drying, the cabbage leaf was placed in a plastic cup, and 10 larvae of diamondback moths in the third instar larva were released there. The cup was covered with a lid and kept in a chamber at a constant temperature of 25° C. for rearing.

[7] = test system: Brown Planthopper (Nilaparvata lugens); assay: Test (foliar dipping) for controlling brown planthopper; settings: 120 h, rice seedlings dipped, 5 days after treatment; for mortality at 200 ppm: third instar larvae
Protocol: […] After air-drying, the rice seedlings held with urethane in a glass cylinder having an inner diameter of 4.5 cm and a length of 14 cm were set up in a plastic cup containing 40 mL of water. Larvae of brown planthoppers in the third instar larva were released there. The cylinder was covered with a lid of medicine paper and kept in a chamber at a constant temperature of 25° C. for rearing.

[8] = test system: Rice Stem Borer (Chilo suppressalis); assay: Test (pot test) for controlling rice stem borer; settings: 14 days after treatment; for Browning stem ratio (%): 500 g/ha as wettable powder (Formulation Example 2) at rice roots, hatchlings released after 4 days; for Ratio to untreated (%): browning stem ratio relative to untreated, 500 g/ha
Protocol: The roots of five sampled rice seedlings were washed with water. The wettable powder prepared in accordance with Formulation Example 2 described above was wrapped in the roots to be planted in a Wagner pot of 1/10000 a. After 4 days from the treatment, a total of […] of rice stem borer were released per strain and reared in a plastic greenhouse with a room temperature set at 25° C. On 14 days after the treatment, the ratio of browning stem of seedlings for each strain and the ratio to untreated ones were calculated. Double system.

[9] = test system: Brown Winged Green Stink Bug (Plautia stali); assay: Test (greenhouse test) for controlling brown winged green stink bug; settings: 100 ppm sprayed on apple fruit; for Number of abnormal insects / Number of dead insects / Number of normal insects: 5 adults released 7 days after treatment, triple system, 4 days after release; for Total number of sheaths formed by stylet insertion: fruit stained with fuchsine after examination; for Proportion of abnormal insects and dead insects on 4 days after releasing insects (%): insects released 7 days after treatment
Protocol: Using a commercially available hand spray, a chemical solution diluted to a concentration of 100 ppm was sprayed onto an apple fruit (cultivar: Fuji). After air-drying, the apple fruit was placed in a plastic cup, which was allowed to stand still for a specified number of […] in a plastic greenhouse with a room temperature set at 25° C. and with the natural light shining thereon. On 7 days after the treatment, 5 adult brown winged green stink bugs (without distinction between male and female) were released onto the treated fruit. On 4 days after the release of insects, the numbers of death and abnormality were observed and recorded. Triple system. Also, the fruit after examination was immersed in an acidic 0.5% fuchsine solution for 30 minutes, and then washed with water to measure the total number of sapping scars.

[10] = test system: Sweetpotato whitefly (Bemisia tabaci); assay: Test (foliar spraying) for controlling sweetpotato whitefly; settings: 120 h, foliar spraying on cucumber leaf, female adults, 5 days after treatment
Protocol: A cucumber leaf cut to a diameter of 6.0 cm was placed on cotton wool moistened with water. The diluent of the test compounds diluted to 200 ppm in an amount of 2 mL was sprayed onto the cucumber leaves with a spray tower. After air-drying, the cucumber leaf was placed in a plastic cup, and 20 female adult sweetpotato whiteflies were released there. The cup was covered with a lid and kept in a chamber at a constant temperature of 25° C. for rearing.

[11] = test system: Brown Planthopper (Nilaparvata lugens); assay: Residual effect test (field experiment) for brown planthopper
Protocol: The roots of five sampled rice seedlings were washed with water. Subsequently, 25 mg of the wettable powder prepared in accordance with Formulation Example 2 described above was wrapped in the roots. Each strain was made from the five seedlings. In outdoor artificial paddy fields made from wooden frames having a size of 60 cm by 90 cm, 10 strains were planted, respectively. The artificial paddy field was shielded by an insect screen with a mesh size of 1 mm, so that invasion of harmful insects from the outside was prevented. Into the test system, 40 to 100 adult brown planthoppers were released at fixed intervals so as to cause damage to the rice. On 16 to 51 days after the treatment, the numbers of surviving insects and dead insects were measured to calculate the density index. The density index was obtained from the following expression.

[12] = After 16 days, 25 mg wettable powder (Formulation Example 2) at roots per strain, outdoor artificial paddy field
[13] = After 23 days, 25 mg wettable powder at roots per strain, artificial paddy field
[14] = After 30 days, 25 mg wettable powder at roots per strain, artificial paddy field
[15] = After 37 days, 25 mg wettable powder at roots per strain, artificial paddy field
[16] = After 44 days, 25 mg wettable powder at roots per strain, artificial paddy field
[17] = After 51 days, 25 mg wettable powder at roots per strain, artificial paddy field

Compound	mortality at 1.6 ppm [1]	mortality at 0.8 ppm ([1]; 96 h, root dipping)	mortality at 200 ppm [2]	mortality at 0.8 ppm ([3]; foliar spraying)	mortality at 200 ppm [3]	mortality at 125 g/ha [5]	mortality at 250 g/ha [5]	mortality at 500 g/ha [5]	mortality at 200 ppm [6]	mortality at 0.01 ppm [7]	mortality at 0.02 ppm [7]	mortality at 200 ppm [7]	Browning stem ratio (%) [8]	Ratio to untreated (%) [8]	Density index of Nilaparvata lugens [11, 12]	Density index of Nilaparvata lugens [11, 13]	Density index of Nilaparvata lugens [11, 14]	Density index of Nilaparvata lugens [11, 15]	Density index of Nilaparvata lugens [11, 16]	Density index of Nilaparvata lugens [11, 17]	other results
Cc1cccc(-c2c([O-])[n+](CCC#N)c3ccccn3c2=O)c1 [Compound 3, 1-(2-cyanoethyl)-2-hydroxy-4-oxo-3-(3-toluyl)-4H-pyrido[1,2-a]pyrimidinium inner salt]	100%	100%	≥ 80%	100%	≥ 80%	33.3%	50%	100%	≥ 80%	10%	40%	≥ 80%	0%	0%	7.7	0	28.4	23.8	13.0	88.5	mortality at 0.025 ppm ([4]; 0.025 ppm): 50%; mortality at 0.05 ppm ([4]; 0.05 ppm): 60%; mortality at 0.1 ppm ([4]; 0.1 ppm): 100%; mortality at 0.05 ppm [7]: 80%; Number of abnormal insects [9]: 7; Number of dead insects [9]: 6; Number of normal insects [9]: 2; Total number of sheaths formed by stylet insertion [9]: 5; Proportion of abnormal insects and dead insects on 4 days after releasing insects (%) [9]: 86.7%; mortality at 200 ppm [10]: ≥ 80%
N#CCC[n+]1c(O)c(-c2cccc(C(F)F)c2)c(=O)n2ccccc21 [Compound 48, 1-(2-cyanoethyl)-3-(3-difluoromethylphenyl)-2-hydroxy-4-oxo-4H-pyrido[1,2-a]pyrimidinium inner salt]					≥ 80%				≥ 80%	0%	20%	≥ 80%									mortality at 0.05 ppm [7]: 100%; mortality at 200 ppm [10]: ≥ 80%
N#CCC[n+]1c([O-])c(-c2cccc(C(F)(F)F)c2)c(=O)n2ccccc21 [Compound 51, 1-(2-cyanoethyl)-2-hydroxy-4-oxo-3-(3-trifluoromethylphenyl)-4H-pyrido[1,2-a]pyrimidinium inner salt]	100%	100%	≥ 80%	100%	≥ 80%	83.3%	100%	100%	≥ 80%			≥ 80%	10%	12%	0	2.6	21.7	43.1	37.1	76.2	mortality at 0.4 ppm ([1]; 96 h, 0.4 ppm, root dipping): 100%; mortality at 0.1 ppm ([3]; 0.1 ppm, foliar spraying): 100%; Number of abnormal insects [9]: 7; Number of dead insects [9]: 8; Number of normal insects [9]: 0; Total number of sheaths formed by stylet insertion [9]: 1; Proportion of abnormal insects and dead insects on 4 days after releasing insects (%) [9]: 100%
N#CCC[n+]1c([O-])c(-c2cccc(OC(F)(F)F)c2)c(=O)n2ccccc21 [Compound 57, 1-(2-cyanoethyl)-2-hydroxy-4-oxo-3-(3-trifluoromethoxyphenyl)-4H-pyrido[1,2-a]pyrimidinium inner salt]			≥ 80%		≥ 80%				≥ 80%			≥ 80%	0%	0%	0	0	25.4	50.4	33.0	80.7	
